Experimental data: PubChem BioAssay (NCI)
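Growth conditions: 96-well plates. Treatment: test compound, 48 hours, 5 concentrations. Analysis: linear interpolation between bracketing concentrations; unreached endpoints set to highest concentration. Here, GI50 denotes the concentration required for 50% inhibition of growth. TGI: total growth inhibition.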

How the values were obtained:
Test in all cases: DTP human tumour cell line panel, 48 h
786-0 renal = system: 786-0 renal
A498 renal = system: A498 renal
A549 NSCLC = system: A549 NSCLC
ACHN renal = system: ACHN renal
BT-549 breast = system: BT-549 breast
CAKI-1 renal = system: CAKI-1 renal
COLO 205 colon = system: COLO 205 colon
DU-145 prostate = system: DU-145 prostate
EKVX NSCLC = system: EKVX NSCLC
HCC-2998 colon = system: HCC-2998 colon
HCT-116 colon = system: HCT-116 colon
HCT-15 colon = system: HCT-15 colon
HL-60(TB) leukemia = system: HL-60(TB) leukemia
HOP-62 NSCLC = system: HOP-62 NSCLC
HOP-92 NSCLC = system: HOP-92 NSCLC
HS 578T breast = system: HS 578T breast
HT29 colon = system: HT29 colon
KM12 colon = system: KM12 colon
LOX IMVI melanoma = system: LOX IMVI melanoma
M14 melanoma = system: M14 melanoma
MALME-3M melanoma = system: MALME-3M melanoma
MCF7 breast = system: MCF7 breast
MDA-MB-231 breast = system: MDA-MB-231 breast
MDA-MB-435 = system: MDA-MB-435
MOLT-4 leukemia = system: MOLT-4 leukemia
NCI-H226 lung = system: NCI-H226 lung
NCI-H23 lung = system: NCI-H23 lung
NCI-H460 lung = system: NCI-H460 lung
NCI-H522 lung = system: NCI-H522 lung
NCI/ADR-RES ovarian = system: NCI/ADR-RES ovarian
OVCAR-3 ovarian = system: OVCAR-3 ovarian
OVCAR-4 ovarian = system: OVCAR-4 ovarian
OVCAR-5 ovarian = system: OVCAR-5 ovarian
OVCAR-8 ovarian = system: OVCAR-8 ovarian
PC-3 prostate = system: PC-3 prostate
RPMI-8226 leukemia = system: RPMI-8226 leukemia
RXF 393 renal = system: RXF 393 renal
SF-268 CNS = system: SF-268 CNS
SF-295 CNS = system: SF-295 CNS
SF-539 CNS = system: SF-539 CNS
SK-MEL-2 melanoma = system: SK-MEL-2 melanoma
SK-MEL-28 melanoma = system: SK-MEL-28 melanoma
SK-MEL-5 melanoma = system: SK-MEL-5 melanoma
SK-OV-3 ovarian = system: SK-OV-3 ovarian
SN12C renal = system: SN12C renal
SNB-19 CNS = system: SNB-19 CNS
SNB-75 CNS = system: SNB-75 CNS
SR leukemia = system: SR leukemia
SW-620 colon = system: SW-620 colon
T-47D breast = system: T-47D breast
TK-10 renal = system: TK-10 renal
U251 CNS = system: U251 CNS
UACC-257 melanoma = system: UACC-257 melanoma
UACC-62 melanoma = system: UACC-62 melanoma
UO-31 renal = system: UO-31 renal

NCCCCCCCCCCn1c2c(c3ccccc3c1=O)C(=O)c1ccccc1-2
GI50 (786-0 renal): 4.8 µM
TGI (786-0 renal): 19.4 µM
GI50 (A498 renal): 13.1 µM
TGI (A498 renal): 33.7 µM
GI50 (A549 NSCLC): 11.5 µM
TGI (A549 NSCLC): 37 µM
GI50 (ACHN renal): 6 µM
TGI (ACHN renal): 18.2 µM
GI50 (BT-549 breast): 5.64 µM
TGI (BT-549 breast): 19.8 µM
GI50 (CAKI-1 renal): 14.7 µM
TGI (CAKI-1 renal): 32.1 µM
GI50 (COLO 205 colon): 3.58 µM
TGI (COLO 205 colon): 12.7 µM
GI50 (DU-145 prostate): 3.46 µM
TGI (DU-145 prostate): 11.2 µM
GI50 (EKVX NSCLC): 17.3 µM
TGI (EKVX NSCLC): 37.8 µM
GI50 (HCC-2998 colon): 6.14 µM
TGI (HCC-2998 colon): 19 µM
GI50 (HCT-116 colon): 2740 nM
TGI (HCT-116 colon): 7.66 µM
GI50 (HCT-15 colon): 4.51 µM
TGI (HCT-15 colon): 16.9 µM
GI50 (HL-60(TB) leukemia): 1770 nM
TGI (HL-60(TB) leukemia): 3.44 µM
GI50 (HOP-62 NSCLC): 4.84 µM
TGI (HOP-62 NSCLC): 17.3 µM
GI50 (HOP-92 NSCLC): 2740 nM
TGI (HOP-92 NSCLC): 7.49 µM
GI50 (HS 578T breast): 13.6 µM
TGI (HS 578T breast): 36.4 µM
GI50 (HT29 colon): 1890 nM
TGI (HT29 colon): 3.75 µM
GI50 (KM12 colon): 5.85 µM
TGI (KM12 colon): 21.9 µM
GI50 (LOX IMVI melanoma): 2650 nM
TGI (LOX IMVI melanoma): 7.06 µM
GI50 (M14 melanoma): 4.72 µM
TGI (M14 melanoma): 16 µM
GI50 (MALME-3M melanoma): 13.2 µM
TGI (MALME-3M melanoma): 33.9 µM
GI50 (MCF7 breast): 4.67 µM
TGI (MCF7 breast): 20.2 µM
GI50 (MDA-MB-231 breast): 5.22 µM
TGI (MDA-MB-231 breast): 18 µM
GI50 (MDA-MB-435): 11.8 µM
TGI (MDA-MB-435): 27.9 µM
GI50 (MOLT-4 leukemia): 1810 nM
TGI (MOLT-4 leukemia): 3.32 µM
GI50 (NCI-H226 lung): 20.4 µM
TGI (NCI-H226 lung): 47.1 µM
GI50 (NCI-H23 lung): 14.9 µM
TGI (NCI-H23 lung): 32.6 µM
GI50 (NCI-H460 lung): 4.06 µM
TGI (NCI-H460 lung): 18.5 µM
GI50 (NCI-H522 lung): 2840 nM
TGI (NCI-H522 lung): 8.4 µM
GI50 (NCI/ADR-RES ovarian): 10.9 µM
TGI (NCI/ADR-RES ovarian): 28.5 µM
GI50 (OVCAR-3 ovarian): 10.8 µM
TGI (OVCAR-3 ovarian): 27.3 µM
GI50 (OVCAR-4 ovarian): 8.7 µM
TGI (OVCAR-4 ovarian): 25.1 µM
GI50 (OVCAR-5 ovarian): 4.52 µM
TGI (OVCAR-5 ovarian): 15.3 µM
GI50 (OVCAR-8 ovarian): 3.34 µM
TGI (OVCAR-8 ovarian): 56.9 µM
GI50 (PC-3 prostate): 2160 nM
TGI (PC-3 prostate): 4.54 µM
GI50 (RPMI-8226 leukemia): 2160 nM
TGI (RPMI-8226 leukemia): 4.47 µM
GI50 (RXF 393 renal): 15.2 µM
TGI (RXF 393 renal): 36.7 µM
GI50 (SF-268 CNS): 11.7 µM
TGI (SF-268 CNS): 50.3 µM
GI50 (SF-295 CNS): 6.48 µM
TGI (SF-295 CNS): 22 µM
GI50 (SF-539 CNS): 1830 nM
TGI (SF-539 CNS): 3.52 µM
GI50 (SK-MEL-2 melanoma): 2040 nM
TGI (SK-MEL-2 melanoma): 4.41 µM
GI50 (SK-MEL-28 melanoma): 3.97 µM
TGI (SK-MEL-28 melanoma): 14.8 µM
GI50 (SK-MEL-5 melanoma): 8.25 µM
TGI (SK-MEL-5 melanoma): 21.3 µM
GI50 (SK-OV-3 ovarian): 18.7 µM
TGI (SK-OV-3 ovarian): 35 µM
GI50 (SN12C renal): 3.32 µM
TGI (SN12C renal): 9.41 µM
GI50 (SNB-19 CNS): 8.31 µM
TGI (SNB-19 CNS): 28 µM
GI50 (SNB-75 CNS): 5.01 µM
TGI (SNB-75 CNS): 17.5 µM
GI50 (SR leukemia): 1860 nM
TGI (SR leukemia): 3.53 µM
GI50 (SW-620 colon): 2330 nM
TGI (SW-620 colon): 5.5 µM
GI50 (T-47D breast): 11.4 µM
TGI (T-47D breast): 39 µM
GI50 (TK-10 renal): 6.55 µM
TGI (TK-10 renal): 20.9 µM
GI50 (U251 CNS): 10.1 µM
TGI (U251 CNS): 24.7 µM
GI50 (UACC-257 melanoma): 21.2 µM
TGI (UACC-257 melanoma): 44.8 µM
GI50 (UACC-62 melanoma): 13.7 µM
TGI (UACC-62 melanoma): 29.4 µM
GI50 (UO-31 renal): 6.16 µM
TGI (UO-31 renal): 18.8 µM

N[C@]1(C(=O)O)C[C@@H]2C(Br)=NO[C@@H]2C1
TGI (786-0 renal): > 100 µM
TGI (A498 renal): > 100 µM
TGI (A549 NSCLC): > 100 µM
TGI (ACHN renal): > 100 µM
TGI (BT-549 breast): > 100 µM
TGI (CAKI-1 renal): > 100 µM
TGI (COLO 205 colon): > 100 µM
TGI (DU-145 prostate): > 100 µM
TGI (EKVX NSCLC): > 100 µM
TGI (HCC-2998 colon): > 100 µM
TGI (HCT-116 colon): > 100 µM
TGI (HCT-15 colon): > 100 µM
TGI (HL-60(TB) leukemia): > 100 µM
TGI (HOP-62 NSCLC): > 100 µM
TGI (HOP-92 NSCLC): > 100 µM
TGI (HS 578T breast): > 100 µM
TGI (HT29 colon): > 100 µM
TGI (KM12 colon): > 100 µM
TGI (M14 melanoma): > 100 µM
TGI (MALME-3M melanoma): > 100 µM
TGI (MCF7 breast): > 100 µM
TGI (MDA-MB-231 breast): > 100 µM
TGI (MDA-MB-435): > 100 µM
TGI (MOLT-4 leukemia): > 100 µM
TGI (NCI-H226 lung): > 100 µM
TGI (NCI-H23 lung): > 100 µM
TGI (NCI-H460 lung): > 100 µM
TGI (NCI-H522 lung): > 100 µM
TGI (NCI/ADR-RES ovarian): > 100 µM
TGI (OVCAR-3 ovarian): > 100 µM
TGI (OVCAR-4 ovarian): > 100 µM
TGI (OVCAR-5 ovarian): > 100 µM
TGI (OVCAR-8 ovarian): > 100 µM
TGI (PC-3 prostate): > 100 µM
TGI (RPMI-8226 leukemia): > 100 µM
TGI (RXF 393 renal): > 100 µM
TGI (SF-268 CNS): > 100 µM
TGI (SF-295 CNS): > 100 µM
TGI (SF-539 CNS): > 100 µM
TGI (SK-MEL-2 melanoma): > 100 µM
TGI (SK-MEL-5 melanoma): > 100 µM
TGI (SK-OV-3 ovarian): > 100 µM
TGI (SNB-19 CNS): > 100 µM
TGI (SNB-75 CNS): > 100 µM
TGI (SR leukemia): > 100 µM
TGI (SW-620 colon): > 100 µM
TGI (T-47D breast): > 100 µM
TGI (TK-10 renal): > 100 µM
TGI (U251 CNS): > 100 µM
TGI (UACC-257 melanoma): > 100 µM
TGI (UACC-62 melanoma): > 100 µM
TGI (UO-31 renal): > 100 µM
